# According to PMC7510464, “The wasp venom antimicrobial peptide polybia‐CP and its synthetic derivatives display antiplasmodial and anticancer properties” (Bioengineering & Translational Medicine, 2020):
# No end group written: not given here.
# Assays:
# [1] = test system: Plasmodium gallinaceum sporozoites; experiment: Effect of peptides on salivary gland-derived P. gallinaceum sporozoites (membrane integrity, propidium iodide fluorescence); format: cell-based; settings: peptides 0.39–6.25 μmol L^−1, 9000 sporozoites in 50 μl PBS, 37°C, 1 hr, fluorescence microscopy, three independent replicates
# Procedure: To assess the antiplasmodial activity of Pol‐CP‐NH2 and its derivatives, the molecules were incubated with Plasmodium gallinaceum sporozoites. The avian malaria parasite, P. gallinaceum, was chosen as the plasmodium model for this study because it presents lower risk and it is highly similar ^27 , ^28 to existing Plasmodium falciparum models responsible for human malaria. ^29
# FIGURE 2 Antiplasmodial activity of polybia‐CP and derivatives in vitro. […] In red, we highlight the conditions at which the peptides were not active against the Plasmodium sporozoites. Experiments were performed in three independent replicates with three repetitions for each condition
# Nine thousand P. gallinaceum mature sporozoites were pulled from the salivary glands of A. aegypti and incubated in 50 μl of PBS solution, with 40 μmol L^−1 digitonin (positive control), 0.39–6.25 μmol L^−1 peptides or negative control (PBS solution), at 37°C for 1 hr. Cell membrane integrity was then observed using a Carl Zeiss inverted fluorescence microscope (model Observer Axio Vision A.1) coupled to an image capture Zeiss AxioCam HR digital camera (1,300 × 1,030 pixels resolution and 8‐bit quantization) after addition of 1 μl of the propidium iodide aqueous solution (200 μmol L^−1) in […] of total solution volume. Images were obtained using a ×40 objective lens and a green filter effect in red. […]
# [2] = test system: human mammary cells (MCF-7); experiment: MTT assay, MCF-7 cells; format: cell-based; settings: 570 nm, method gives serial dilutions 0.09–50 μmol L^−1, 2 and 24 hr (time for IC50 not stated), triplicate, NO = not observed, read-out: IC50, concentration of peptide needed for killing 50% of MCF-7
# Procedure: (§1) Human mammary adenocarcinoma (MCF‐7) cells were maintained in RPMI 1640 medium supplemented with 10% heat inactivated fetal bovine serum and 100 μg ml^−1 penicillin/10 μg ml^−1 streptomycin. While hepatocellular carcinoma (Hep G2) cells, neuroblastoma (SHSY‐5Y) cells and melanoma (SK‐mel‐147) cells were maintained in RPMI 1640 medium supplemented with 10% heat inactivated fetal bovine serum and 100 μg ml^−1 penicillin/10 μg ml^−1 streptomycin. One day before the assays, the cells were plated in 96‐well microtiter plate with a density of 2.0 × 10^4 cells/well at 37°C and 5% CO2. On the next day, cells were treated with peptides serial dilutions (0.09–50 μmol L^−1), incubated in individual microtiter plates for 2 and 24 hr and MTT assays were performed after treatment. Human breast epithelial cells MCF‐10A (ATCC) were maintained in mixture of Dulbecco's modified Eagle's medium and Ham's F12 nutrient mixture supplemented with 5% inactivated horse serum, 10 μg ml^−1 insulin, 0.02 μg ml^−1 human epidermal growth factor, 0.5 μg ml^−1 hydrocortisone, 0.10 μg ml^−1 choleric toxin, 100 U ml^−1 penicillin, and 100 μg ml^−1 streptomycin. […]
# (§2) Briefly, MTT (Sigma–Aldrich) was dissolved in water and filtered to make up a 5 μg ml^−1 solution. […] Finally, the microplates were read on an ELISA reader at 570 nm. […]
# [3] = test system: carcinoma cells of human liver (HepG2); experiment: MTT assay, HepG2 cells; format: cell-based; settings: 570 nm, method gives serial dilutions 0.09–50 μmol L^−1, 2 and 24 hr (time for IC50 not stated), triplicate, NO = not observed, read-out: IC50, concentration of peptide needed for killing 50% of HepG2
# Procedure: as §1, §2
# [4] = test system: neuroblastoma cell (SH-SY5Y); experiment: MTT assay, SH-SY5Y cells; format: cell-based; settings: 570 nm, method gives serial dilutions 0.09–50 μmol L^−1, 2 and 24 hr (time for IC50 not stated), triplicate, NO = not observed, read-out: IC50, concentration of peptide needed for killing 50% of SH-SY5Y
# Procedure: as §1, §2
# [5] = test system: human embryonic kidney (HEK293) cells; settings: at 25 μmol L^−1; cited from earlier work
# Text: The inhibitory activities observed against cancer cell lines are at the same range of concentrations reported for antimicrobial activity ^6 (Figure 2b) for this family of peptides.
Substance,"antiplasmodial activity (fluorescent sporozoites, membrane disrupted) [1]",IC50 [2],IC50 [3],IC50 [4],toxicity against HEK293 cells [5]
ILGKILGLLKSL-NH2 [[Lys]^4-Pol-CP-NH2],most active ones against Plasmodium,200 µM,> 50 µM,> 50 µM,–
"ILGTILGLLKSL-NH2 [Pol-CP-NH2, Ile‐Leu‐Gly‐Thr‐Ile‐Leu‐Gly‐Leu‐Leu‐Lys‐Ser‐Leu‐NH2]",–,200 µM,–,–,one of the most toxic AMPs of the polybia‐CP family
